Drawing on patent US7919506B2, “Dibenzyl amine compounds and derivatives” (Pfizer Inc., priority 2006, dated 2011), this text covers melting point for one compound.

Each structure is given as a SMILES string.

`COC1(c2ccc(C(F)(F)F)cc2CN(Cc2cc(C(F)(F)F)cc(C(F)(F)F)c2)c2nnn(C)n2)CCCCCC1` [Example 52, N-(2-(1-methoxycycloheptyl)-5-(trifluoromethyl)benzyl)-N-(3,5-bis(trifluoromethyl)benzyl)-2-methyl-2H-tetrazol-5-amine]: the melting point (commonly the temperature of the solid-liquid transition) was 103 to 104 °C.
